Legend:
Sagittaria pygmaea [1] = experiment: Herbicidal activity against Sagittaria pygmaea assessed as weed control in transplanted rice field at 30 g/ha treated after 10 days transplanting; type: functional
Pontederia vaginalis [2] = experiment: Herbicidal activity against Monochoria vaginalis assessed as weed control in transplanted rice field at 30 g/ha treated after 10 days transplanting; type: functional
[3] = tested on: Schoenoplectiella juncoides; experiment: Herbicidal activity against Schoenoplectiella juncoides assessed as weed control in transplanted rice field at 30 g/ha treated after 10 days transplanting; type: functional
Echinochloa crus-galli [4] = experiment: Herbicidal activity against Echinochloa crus-galli (barnyard grass) assessed as weed control in transplanted rice field at 30 g/ha treated after 10 days transplanting; type: functional
Cyperus serotinus [5] = experiment: Herbicidal activity against Cyperus serotinus assessed as weed control in transplanted rice field at 30 g/ha treated after 7 days transplanting; type: functional
[6] = Phytotoxicity against Oryza sativa (rice) assessed as growth inhibition under greenhouse at 5 g/ha measured after 18 days by preemergence activity assay; type: organism-based; settings: in vivo, read-out: GI
Rotala indica = experiment: Herbicidal activity against Rotala indica assessed as growth inhibition in paddy condition under greenhouse at 5 g/ha measured after 18 days by preemergence activity assay; type: functional; settings: pre-emergence, 432 h, read-out: GI
Pontederia vaginalis [7] = experiment: Herbicidal activity against Monochoria vaginalis assessed as growth inhibition in paddy condition under greenhouse at 5 g/ha measured after 18 days by preemergence activity assay; type: functional; settings: pre-emergence, 432 h, read-out: GI
Echinochloa crus-galli [8] = experiment: Herbicidal activity against Echinochloa crus-galli (barnyard grass) assessed as growth inhibition in paddy condition under greenhouse at 5 g/ha measured after 18 days by preemergence activity assay; type: functional; settings: pre-emergence, 432 h, read-out: GI
Oryza sativa [9] = experiment: Effect on Oryza sativa (rice) plant growth in transplanted Oryza sativa field assessed as plant height at 30 g/ha treated after 10 days transplanting; type: organism-based; settings: in vivo, other, 240 h
Oryza sativa [10] = experiment: Effect on Oryza sativa (rice) plant growth in transplanted Oryza sativa field assessed as plant height at 30 g/ha treated after 3 days transplanting; type: organism-based; settings: in vivo, other, 72 h
Oryza sativa [11] = experiment: Effect on Oryza sativa (rice) plant growth in transplanted Oryza sativa field assessed as plant height at 20 g/ha treated after 3 days transplanting; type: organism-based; settings: in vivo, other, 72 h
Cyperus serotinus [12] = experiment: Herbicidal activity against Cyperus serotinus assessed as weed control in transplanted rice field at 30 g/ha treated after 15 days transplanting; type: functional
unidentified [13] = experiment: Herbicidal activity against broadleaf weed assessed as weed control in transplanted rice field at 30 g/ha treated after 15 days transplanting; type: functional
Echinochloa crus-galli [14] = experiment: Herbicidal activity against Echinochloa crus-galli (barnyard grass) assessed as weed control in transplanted rice field at 30 g/ha treated after 15 days transplanting; type: functional
Cyperus serotinus [15] = experiment: Herbicidal activity against Cyperus serotinus assessed as weed control in transplanted rice field at 30 g/ha treated after 10 days transplanting; type: functional
Pontederia vaginalis [16] = experiment: Herbicidal activity against Monochoria vaginalis assessed as weed control in transplanted rice field at 30 g/ha treated after 7 days transplanting; type: functional
[17] = tested on: Schoenoplectiella juncoides; experiment: Herbicidal activity against Schoenoplectiella juncoides assessed as weed control in transplanted rice field at 30 g/ha treated after 7 days transplanting; type: functional
Oryza sativa [18] = experiment: Effect on Oryza sativa (rice) plant growth in transplanted Oryza sativa field assessed as number of tillers at 30 g/ha treated after 7 days transplanting; type: organism-based; settings: in vivo, other, 168 h
Oryza sativa [19] = experiment: Effect on Oryza sativa (rice) plant growth in transplanted Oryza sativa field assessed as number of tillers at 20 g/ha treated after 3 days transplanting; type: organism-based; settings: in vivo, other, 72 h
Oryza sativa [20] = experiment: Effect on Oryza sativa (rice) plant growth in transplanted Oryza sativa field assessed as plant height at 30 g/ha treated after 15 days transplanting; type: organism-based; settings: in vivo, 360 h
Pontederia vaginalis [21] = experiment: Herbicidal activity against Monochoria vaginalis assessed as weed control in transplanted rice field at 20 g/ha treated after 7 days transplanting; type: functional
Echinochloa crus-galli [22] = experiment: Herbicidal activity against Echinochloa crus-galli (barnyard grass) assessed as weed control in transplanted rice field at 20 g/ha treated after 7 days transplanting; type: functional
Sagittaria pygmaea [23] = experiment: Herbicidal activity against Sagittaria pygmaea assessed as weed control in transplanted rice field at 20 g/ha treated after 3 days transplanting; type: functional
[24] = Herbicidal activity against broadleaf weed assessed as weed control in transplanted rice field at 20 g/ha treated after 3 days transplanting; type: functional
Pontederia vaginalis [25] = experiment: Herbicidal activity against Monochoria vaginalis assessed as weed control in transplanted rice field at 20 g/ha treated after 3 days transplanting; type: functional
[26] = tested on: Schoenoplectiella juncoides; experiment: Herbicidal activity against Schoenoplectiella juncoides assessed as weed control in transplanted rice field at 20 g/ha treated after 3 days transplanting; type: functional
Eleocharis kuroguwai [27] = experiment: Herbicidal activity against Eleocharis kuroguwai assessed as growth inhibition treated 7 to 15 days after planting measured by post-emergence activity assay; type: functional
Sagittaria pygmaea [28] = experiment: Herbicidal activity against two-leaf stage Sagittaria pygmaea assessed as growth inhibition treated 7 to 15 days after planting measured by post-emergence activity assay; type: functional
Cyperus serotinus [29] = experiment: Herbicidal activity against three to four-leaf stage Cyperus serotinus assessed as growth inhibition treated 7 to 15 days after planting measured by postemergence activity assay; type: functional
Pontederia vaginalis [30] = experiment: Herbicidal activity against three to five-leaf stage Monochoria vaginalis assessed as growth inhibition treated 7 to 15 days after planting measured by postemergence activity assay; type: functional
[31] = tested on: Schoenoplectiella juncoides; experiment: Herbicidal activity against two-leaf stage Schoenoplectiella juncoides assessed as growth inhibition treated 7 to 15 days after planting measured by postemergence activity assay; type: functional
Eleocharis kuroguwai [32] = experiment: Herbicidal activity against Eleocharis kuroguwai assessed as growth inhibition measured after 2 days by pre-emergence activity assay; type: functional
Cyperus serotinus [33] = experiment: Herbicidal activity against Cyperus serotinus assessed as growth inhibition measured after 2 days by preemergence activity assay; type: functional
Sagittaria pygmaea [34] = experiment: Herbicidal activity against Sagittaria pygmaea assessed as growth inhibition measured after 2 days by pre-emergence activity assay; type: functional
Alisma canaliculatum = experiment: Herbicidal activity against Alisma canaliculatum assessed as growth inhibition measured after 2 days by pre-emergence activity assay; type: functional
Pontederia vaginalis [35] = experiment: Herbicidal activity against Monochoria vaginalis assessed as growth inhibition measured after 2 days by preemergence activity assay; type: functional
[36] = tested on: Schoenoplectiella juncoides; experiment: Herbicidal activity against Schoenoplectiella juncoides assessed as growth inhibition measured after 2 days by preemergence activity assay; type: functional
Echinochloa crus-galli [37] = experiment: Herbicidal activity against Echinochloa crus-galli (barnyard grass) assessed as weed control in transplanted rice field at 30 g/ha treated after 7 days transplanting; type: functional
Sagittaria pygmaea [38] = experiment: Herbicidal activity against Sagittaria pygmaea assessed as weed control in transplanted rice field at 30 g/ha treated after 3 days transplanting; type: functional
unidentified [39] = experiment: Herbicidal activity against broadleaf weed assessed as weed control in transplanted rice field at 30 g/ha treated after 3 days transplanting; type: functional
Pontederia vaginalis [40] = experiment: Herbicidal activity against Monochoria vaginalis assessed as weed control in transplanted rice field at 30 g/ha treated after 3 days transplanting; type: functional
[41] = tested on: Schoenoplectiella juncoides; experiment: Herbicidal activity against Schoenoplectiella juncoides assessed as weed control in transplanted rice field at 30 g/ha treated after 3 days transplanting; type: functional
Echinochloa crus-galli [42] = experiment: Herbicidal activity against Echinochloa crus-galli (barnyard grass) assessed as weed control in transplanted rice field at 30 g/ha treated after 3 days transplanting; type: functional
Cyperus serotinus [43] = experiment: Herbicidal activity against Cyperus serotinus assessed as weed control in transplanted rice field at 20 g/ha treated after 7 days transplanting; type: functional
unidentified [44] = experiment: Herbicidal activity against broadleaf weed assessed as weed control in transplanted rice field at 20 g/ha treated after 7 days transplanting; type: functional

In the case of CCOC(=O)c1cnn(C)c1S(=O)(=O)NC(=O)Nc1nc(OC)cc(OC)n1 [PYRAZOSULFURON ETHYL], the Activity (Sagittaria pygmaea [1]) is reported as 95%, the Activity (Pontederia vaginalis [2]) is reported as 93% and the Activity [3] is reported as 93%. For the same molecule, the Activity (Echinochloa crus-galli [4]) was 90%, the Activity (Cyperus serotinus [5]) was 100% and the inhibition at 432 h [6] was under 5%. The inhibition of growth at 5 g/ha (Rotala indica) was over 90%, the inhibition of growth at 5 g/ha (Pontederia vaginalis [7]) was over 90% and the inhibition of growth at 5 g/ha (Echinochloa crus-galli [8]) was 40%. It also gave an Activity (Oryza sativa [9]) of 102%, an Activity (Oryza sativa [10]) of 104% and an Activity (Oryza sativa [11]) of 104%. The Activity (Cyperus serotinus [12]) was 97%, the Activity (unidentified [13]) was 100% and the Activity (Echinochloa crus-galli [14]) was 85%. The Activity (Cyperus serotinus [15]) was 97%, the Activity (Pontederia vaginalis [16]) was 100% and the Activity [17] was 100%. The Activity (Oryza sativa [18]) was 100%, the Activity (Oryza sativa [19]) was 100% and the Activity (Oryza sativa [20]) was 101%. It also gave an Activity (Pontederia vaginalis [21]) of 100%, an Activity (Echinochloa crus-galli [22]) of 98% and an Activity (Sagittaria pygmaea [23]) of 95%. For the same molecule, the Activity [24] was 100%, the Activity (Pontederia vaginalis [25]) was 100% and the Activity [26] was 97%. The I75 (Eleocharis kuroguwai [27]) was 7.4 gAi/ha, the I75 (Sagittaria pygmaea [28]) was 2.7 gAi/ha and the I75 (Cyperus serotinus [29]) was 1.9 gAi/ha. The I75 (Pontederia vaginalis [30]) was 2.7 gAi/ha, the I75 [31] was 13 gAi/ha and the I75 (Eleocharis kuroguwai [32]) was 1.9 gAi/ha. It also gave an I75 (Cyperus serotinus [33]) of 0.9 gAi/ha, an I75 (Sagittaria pygmaea [34]) of 1.9 gAi/ha and an I75 (Alisma canaliculatum) of 2.1 gAi/ha. For the same molecule, the I75 (Pontederia vaginalis [35]) was 2.7 gAi/ha, the I75 [36] was 8.3 gAi/ha and the Activity (Echinochloa crus-galli [37]) was 98%. The Activity (Sagittaria pygmaea [38]) was 97%, the Activity (unidentified [39]) was 100% and the Activity (Pontederia vaginalis [40]) was 100%. The Activity [41] was 100%, the Activity (Echinochloa crus-galli [42]) was 97% and the Activity (Cyperus serotinus [43]) was 100%. The Activity (unidentified [44]) was 100%.
